Here are results for 17 compounds from US11186576B2, “Pyrazolo[1,5-A][1,3,5]triazine and pyrazolo[1,5-A]pyrimidine derivatives as CDK inhibitors” (Aurigene Discovery Technologies Limited, priority 2015, dated 2021).

Experiment [1] concerns RNA polymerase II CTD phosphorylation (MDA-MB-231/NCI-H358 cells). Nature of the experiment: Inhibition of RNA polymerase II CTD phosphorylation in cell western assay. The experiment is classed as cell-based. To be noted: 4 hours incubation, phospho RNA Pol II Ser-5 or Ser-2. On the procedure:
25000 cells (MDA-MB-231/NCI-H358) were seeded in 96 well black clear bottom plate incubated for overnight before addition of selected compound. 3 fold dilutions of selected compound diluted in DMSO starting from 10 μM, added to cells and incubated for 4 hours at 37° C., 5% CO2 incubator. Cells were washed once with 100 μl of phosphate buffered saline (sigma #P3813), then fixed with 100 μl/well of 4% Para formaldehyde for 60 min at room temperature, in dark. The cells were washed 3 times with 100 μl of wash buffer (PBS with 0.1% Triton-X-100), later blocked for 2 hours at room temperature in blocking buffer (5% BSA in PBST). Cells were stained overnight at 4° C. with Phospho RNA Pol II (S5) (Millipore #04-1572, Abcam #5131) or Phospho RNA Pol II (Ser-2), antibody (Bethyl labs #A300-654-A) in blocking buffer. Post incubation cells were washed with Delifia wash buffer (Perkin Elmer #4010-0010). Cells were treated with LANCE secondary antibodies (LANCE® Eu-W1024 perkin elmer #AD-0076 for phospho Ser-5 CTD RNA pol-II and Delfia Eu-N1 anti rabbit IgG Perkin elmer #AD0106 for phospho Ser-2 CTD RNA pol-II) for 2 hours in assay buffer (Perkin Elmer #1244-111), Cells were washed 3 times with Delfia wash buffer post incubation, Enhancement solution (Perkin Elmer #1244-105) added and incubated for 20 mins. Europium readings were taken in Victor-3 instrument. Cell normalization was done using Hoechst dye (0.5 μg/ml).
Selected compounds were screened in the above mentioned assay procedure. The EC50 values are summarised in the below table; wherein group “A” refers to an EC50 value of less than or equal to 1 μM, group “B” refers to EC50 value in range of 1 to 10 μM and group “C” refers to EC50 value of greater than 10 μM.

A further experiment deals with CDK7/CycH/MNAT1 (Homo sapiens (Human), UniProt P50613). Nature of the experiment: Biochemical assay for CDK7 (TR-FRET kinase assay). The conditions noted are these: 60 min pre-incubation, 1 mM ATP; for inhibition at 10 µM / % inhibition @ 10 μM: 10 μM compound; for inhibition at 10 µM: read-out: % inhibition @ 10 μM; for IC50: read-out: IC50. The gist of the method: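 CDK7/CycH/MNAT1 (5 nM) was preincubated with compound for 60 min at room temperature, then reacted for 60 min with 100 nM ULight-MBP and 1 mM ATP in 1% DMSO. Irreversibility was probed with 20, 60 and 180 min preincubations.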
A general note: Time-resolved FRET reads energy transfer from a long-lived donor to a nearby acceptor.

Sequence of CDK7/CycH/MNAT1 (P50613 whole entry): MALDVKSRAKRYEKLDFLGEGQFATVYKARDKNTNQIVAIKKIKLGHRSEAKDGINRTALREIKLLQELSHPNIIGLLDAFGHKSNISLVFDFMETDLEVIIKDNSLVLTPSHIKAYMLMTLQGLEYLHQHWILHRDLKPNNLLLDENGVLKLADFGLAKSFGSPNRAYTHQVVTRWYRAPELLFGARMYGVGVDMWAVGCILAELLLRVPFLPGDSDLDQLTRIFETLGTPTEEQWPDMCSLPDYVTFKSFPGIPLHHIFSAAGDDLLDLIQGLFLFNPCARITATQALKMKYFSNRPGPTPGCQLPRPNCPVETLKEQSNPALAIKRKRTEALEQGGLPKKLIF
Sequence of CDK7/CycH/MNAT1 (P51946 whole entry partner): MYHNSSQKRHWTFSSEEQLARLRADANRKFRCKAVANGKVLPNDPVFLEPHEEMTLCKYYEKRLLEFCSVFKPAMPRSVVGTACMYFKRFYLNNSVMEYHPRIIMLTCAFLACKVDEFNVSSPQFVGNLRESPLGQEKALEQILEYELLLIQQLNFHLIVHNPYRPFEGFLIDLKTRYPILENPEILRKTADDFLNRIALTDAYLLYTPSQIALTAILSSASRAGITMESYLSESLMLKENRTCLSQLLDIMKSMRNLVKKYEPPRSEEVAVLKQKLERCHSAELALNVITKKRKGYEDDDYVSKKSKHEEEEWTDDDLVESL
Sequence of CDK7/CycH/MNAT1 (P51948 whole entry partner): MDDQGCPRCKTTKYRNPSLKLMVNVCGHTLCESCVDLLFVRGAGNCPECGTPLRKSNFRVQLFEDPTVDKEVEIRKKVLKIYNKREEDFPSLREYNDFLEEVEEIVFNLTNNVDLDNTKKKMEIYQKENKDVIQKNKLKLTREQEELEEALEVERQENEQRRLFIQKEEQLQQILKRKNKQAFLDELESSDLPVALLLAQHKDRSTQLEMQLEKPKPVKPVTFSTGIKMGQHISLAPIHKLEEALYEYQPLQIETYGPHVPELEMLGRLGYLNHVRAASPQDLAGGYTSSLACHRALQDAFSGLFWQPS

For orientation: EC50 means the concentration that produces a half-maximal response. As a reminder, the inhibition is the change of the read-out against control, counted positive when it falls. As usually defined, the IC50 is the concentration that inhibits the measured activity by half. The compound `C=CC(=O)N1CCCC1C(=O)Nc1cccc(CNc2nc(NC3CCOCC3)nc3c(C(C)C)cnn23)c1` (stereo not drawn) [Compound 3, 1-acryloyl-N-(3-(((8-isopropyl-2-((tetrahydro-2H-pyran-4-yl)amino)pyrazolo[1,5-a][1,3,5]triazin-4-yl)amino)methyl)phenyl)pyrrolidine-2-carboxamide] registered an EC50 in experiment [1] of at most 1000 nM. Besides, at CDK7/CycH/MNAT1, the inhibition at 10 µM is 96% and the IC50 is under 300 nM.
The matching figures for `C=CC(=O)N1CCC1C(=O)Nc1cccc(CNc2nc(NC3CCOCC3)nc3c(C(C)C)cnn23)c1` (stereo not drawn) [Compound 2, 1-acryloyl-N-(3-(((8-isopropyl-2-((tetrahydro-2H-pyran-4-yl)amino)pyrazolo[1,5-a][1,3,5]triazin-4-yl)amino)methyl)phenyl)azetidine-2-carboxamide]: at most 1000 nM, 98% and under 300 nM.
The matching figures for `C=CC(=O)N[C@H]1CC[C@@H](C(=O)Nc2cccc(CNc3nc(OC4CCN(C)CC4)nc4c(C5CC5)cnn34)c2)CC1` [Compound 105, (1,4-cis)-4-acrylamido-N-(3-(((8-cyclopropyl-2-((1-methylpiperidin-4-yl)oxy)pyrazolo[1,5-a][1,3,5]triazin-4-yl)amino)methyl)phenyl)cyclohexane-1-carboxamide]: over 10000 nM, 92% and under 300 nM.
As for `C=CC(=O)N1CCCC(C(=O)Nc2cc(CNc3nc(OC4CCN(C)CC4)nc4c(C(C)C)cnn34)ccc2F)C1` (stereo not drawn) [Compound 117, 1-acryloyl-N-(2-fluoro-5-(((8-isopropyl-2-((1-methylpiperidin-4-yl)oxy)pyrazolo[1,5-a][1,3,5]triazin-4-yl)amino)methyl)phenyl)piperidine-3-carboxamide], in experiment [1], the concentration for a half-maximal effect (EC50) is 1000 to 10000 nM. In addition, on CDK7/CycH/MNAT1, the inhibition at 10 µM was 95% and the IC50 was under 300 nM.
For `C=CC(=O)N1CCC(C(=O)Nc2cccc(CNc3nc(NC4CCCC(O)C4)nc4c(C(C)C)cnn34)c2)C1` (single isomer, unassigned) [Compound 13, 1-acryloyl-N-(3-(((2-((3-hydroxycyclohexyl)amino)-8-isopropylpyrazolo[1,5-a][1,3,5]triazin-4-yl)amino)methyl)phenyl)pyrrolidine-3-carboxamide], the EC50 in experiment [1] was 1000 to 10000 nM. Further, on CDK7/CycH/MNAT1, the “% inhibition @ 10 μM” value was 93% and the IC50 was 300 to 1000 nM.
As for `C=CC(=O)N1CCCC(C(=O)Nc2cccc(CNc3nc(OC4CCN(C)CC4)nc4c(C(C)C)cnn34)c2)C1` (stereo not drawn) [Compound 116, 1-acryloyl-N-(3-(((8-isopropyl-2-((1-methylpiperidin-4-yl)oxy)pyrazolo[1,5-a][1,3,5]triazin-4-yl)amino)methyl)phenyl)piperidine-3-carboxamide], in experiment [1], the EC50 is 1000 to 10000 nM. At CDK7/CycH/MNAT1, the inhibition at 10 µM was found to be 92% and the half-maximal inhibitory concentration (IC50) is under 300 nM.
For `CC(C)c1cnn2c(NCc3cccc(NC(=O)C4CCN(C(=O)/C=C/CN(C)C)C4)c3)nc(NC3CCOCC3)nc12` (stereo not drawn) [Compound 69, (E)-1-(4-(dimethylamino)but-2-enoyl)-N-(3-(((8-isopropyl-2-((tetrahydro-2H-pyran-4-yl)amino)pyrazolo[1,5-a][1,3,5]triazin-4-yl)amino)methyl)phenyl)pyrrolidine-3-carboxamide], in that order: 1000 to 10000 nM, 98% and under 300 nM.
The matching figures for `C=CC(=O)NC1CCCC(C(=O)Nc2cccc(CNc3nc(OC4CCN(C)CC4)nc4c(C(C)C)cnn34)c2)C1` (stereo not drawn) [Compound 114, 3-acrylamido-N-(3-(((8-isopropyl-2-((1-methylpiperidin-4-yl)oxy)pyrazolo[1,5-a][1,3,5]triazin-4-yl)amino)methyl)phenyl)cyclohexane-1-carboxamide]: 1000 to 10000 nM, 97% and under 300 nM.
As to `C=CC(=O)N[C@H]1CC[C@@H](C(=O)Nc2cccc(CNc3nc(OC4CCN(C)C4)nc4c(C(C)C)cnn34)c2)CC1` (stereo partly drawn) [Compound 101, (1,4-cis)-4-acrylamido-N-(3-(((8-isopropyl-2-((1-methylpyrrolidin-3-yl)oxy)pyrazolo[1,5-a][1,3,5]triazin-4-yl)amino)methyl)phenyl)cyclohexane-1-carboxamide], in experiment [1], the half-maximal effective concentration (EC50) is 1000 to 10000 nM. Further, on CDK7/CycH/MNAT1, the inhibition at 10 µM came to 96% and the IC50 is under 300 nM.
For `C=CC(=O)N1CCC(C(=O)Nc2cccc(CNc3nc(OCCCCN)nc4c(C(C)C)cnn34)c2)CC1` [Compound 107, 1-acryloyl-N-(3-(((2-(4-aminobutoxy)-8-isopropylpyrazolo[1,5-a][1,3,5]triazin-4-yl)amino)methyl)phenyl)piperidine-4-carboxamide], in that order: 1000 to 10000 nM, 95% and under 300 nM.
Compound `C=CC(=O)N1CCC(C(=O)Nc2cccc(CNc3nc(OC4CCN(C)CC4)nc4c(C(C)C)cnn34)c2)C1` (single isomer, unassigned) [Compound 109, 1-acryloyl-N-(3-(((8-isopropyl-2-((1-methylpiperidin-4-yl)oxy)pyrazolo[1,5-a][1,3,5]triazin-4-yl)amino)methyl)phenyl)pyrrolidine-3-carboxamide] returned an EC50 in experiment [1] of 1000 to 10000 nM. Also, on CDK7/CycH/MNAT1, the inhibition at 10 µM amounted to 98% and the half-maximal inhibitory concentration (IC50) was under 300 nM.
The matching figures for `C=CC(=O)N1CCCCC1C(=O)Nc1cccc(CNc2nc(NC3CCOCC3)nc3c(C(C)C)cnn23)c1` (stereo not drawn) [Compound 21, 1-acryloyl-N-(3-(((8-isopropyl-2-((tetrahydro-2H-pyran-4-yl)amino)pyrazolo[1,5-a][1,3,5]triazin-4-yl)amino)methyl)phenyl)piperidine-2-carboxamide]: at most 1000 nM, 96% and under 300 nM.
The matching figures for `C=CC(=O)N1CCCC(C(=O)Nc2cccc(CNc3nc(NC4CCOCC4)nc4c(C(C)C)cnn34)c2)C1` (stereo not drawn) [Compound 1, 1-acryloyl-N-(3-(((8-isopropyl-2-((tetrahydro-2H-pyran-4-yl)amino)pyrazolo[1,5-a][1,3,5]triazin-4-yl)amino)methyl)phenyl)piperidine-3-carboxamide]: at most 1000 nM, 88% and 300 to 1000 nM.
The matching figures for `C=CC(=O)N1CC(C(=O)Nc2cccc(CNc3nc(NC4CCOCC4)nc4c(C(C)C)cnn34)c2)C1` [Compound 18, 1-acryloyl-N-(3-(((8-isopropyl-2-((tetrahydro-2H-pyran-4-yl)amino)pyrazolo[1,5-a][1,3,5]triazin-4-yl)amino)methyl)phenyl)azetidine-3-carboxamide]: at most 1000 nM, 101% and under 300 nM.
`CC(C)c1cnn2c(NCc3ccc(F)c(NC(=O)[C@H]4CC[C@@H](NC(=O)/C=C/CN(C)C)CC4)c3)nc(OC3CCN(C)CC3)nc12` [Compound 124, (1,4-cis)-4-((E)-4-(dimethylamino)but-2-enamido)-N-(2-fluoro-5-(((8-isopropyl-2-((1-methylpiperidin-4-yl)oxy)pyrazolo[1,5-a][1,3,5]triazin-4-yl)amino)methyl)phenyl)cyclohexane-1-carboxamide] showed a 50% effective concentration (EC50) in experiment [1] of over 10000 nM. Also, on CDK7/CycH/MNAT1, the inhibition at 10 µM was 94% and the half-maximal inhibitory concentration (IC50) was under 300 nM.
Consider `C=CC(=O)N1CCC(C(=O)Nc2cccc(CNc3nc(NC4CCOCC4)nc4c(C(C)C)cnn34)c2)C1` (single isomer, unassigned) [Compound 6, 1-acryloyl-N-(3-(((8-isopropyl-2-((tetrahydro-2H-pyran-4-yl)amino)pyrazolo[1,5-a][1,3,5]triazin-4-yl)amino)methyl)phenyl)pyrrolidine-3-carboxamide], for which the half-maximal effective concentration (EC50) in experiment [1] fell in the range of 1000 to 10000 nM. Further, at CDK7/CycH/MNAT1, the “% inhibition @ 10 μM” value worked out at 91% and the IC50 was under 300 nM.
Turning to `C=CC(=O)N1CCC(C(=O)Nc2cccc(CNc3nc(OC4CCN(C)CC4)nc4c(C(C)C)cnn34)c2)C1` (single isomer, unassigned) [Compound 110, 1-acryloyl-N-(3-(((8-isopropyl-2-((1-methylpiperidin-4-yl)oxy)pyrazolo[1,5-a][1,3,5]triazin-4-yl)amino)methyl)phenyl)pyrrolidine-3-carboxamide], the concentration for a half-maximal effect (EC50) in experiment [1] was in the range of 1000 to 10000 nM. For the same compound, at CDK7/CycH/MNAT1, the “% inhibition @ 10 μM” value stood at 99% and the IC50 is under 300 nM.
